Consider one compound from BindingDB's records for doi:10.1016/s0960-894x(01)00758-2 (University of St. Andrews, 2002).

SMILES strings stand for the structures.

A short description of the assay: Tested for binding affinity against kynureninase enzyme from bacterial cells.

Consider `NC(CC(O)c1cccc(O)c1)C(=O)O` (stereo unspecified) [2-amino-4-[3'-hydroxyphenyl]-4-hydroxybutanoic acid], for which affinity was put at a Ki of 10 µM. In other words, the double-digit micromolar range.

The Ki is the equilibrium dissociation constant of an inhibitor or competing ligand from its target. High values mean a looser hold on the target, low ones a stronger hold on the target.
